# Data published in US6525001B1, “Substituted pyrimidine and pyridine herbicides” (Mid-American Commercialization Corporation, priority 1997, dated 2003).
# Tests used:
# Test in all cases: Test B pre-/postemergence
# Type in all cases: in vivo
# Parameters in all cases: key: 0 is no effect; 10 is complete control
# [1] = test system: crabgrass (Digitaria sanguinalis)
# Summary of the method: (§1)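 Seeds were planted and sprayed preemergence, while plants at 2 to 18 cm (1- to 4-leaf stage) were sprayed postemergence at the same time, with test chemical in a non-phytotoxic solvent mixture containing surfactant. After twelve to sixteen days in a greenhouse, injury was rated visually against untreated controls on a 0–10 scale.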
# [2] = test system: wild oat (Avena fatua)
# Summary of the method: as §1
# [3] = test system: momingglory (Ipomoea hederacea)
# Summary of the method: as §1
# [4] = test system: cocklebur (Xanthium strumarium)
# Summary of the method: as §1
# [5] = test system: velvetleaf (Abutilon theophrasti)
# Summary of the method: as §1
# [6] = test system: giant foxtail (Setaria faberii)
# Summary of the method: as §1
# [7] = test system: wheat (Triticum aestivum)
# Summary of the method: as §1
# [8] = test system: broadleaf signalgrass (Brachiaria decumbens)
# Summary of the method: as §1
# [9] = test system: soybean (Glycine max)
# Summary of the method: as §1
# [10] = test system: blackgrass (Alopecurus myosuroides)
# Summary of the method: as §1
# [11] = test system: corn (Zea mays)
# Summary of the method: as §1
# [12] = test system: purple nutsedge (Cyperus rotundus)
# Summary of the method: as §1
# [13] = test system: pigweed (Amaranthus retroflexus)
# Summary of the method: as §1
# [14] = test system: sugar beet (Beta vulgaris)
# Summary of the method: as §1
structure (smiles),measurement,setting,value
Cc1cnc(-c2ccc(C(F)(F)F)cc2)nc1C(Cl)c1cccc(C(F)(F)F)c1 (racemic) [Compound 21],"Plant response rating, Crabgrass","[1]; Rate 62 g/ha, Postemergence",3
same,Crabgrass plant response rating,"[1]; Rate 62 g/ha, Preemergence",3
same,"Plant response rating, Crabgrass","[1]; Rate 125 g/ha, Postemergence",6
same,Crabgrass plant response rating,"[1]; Rate 125 g/ha, Preemergence",6
same,"Plant response rating, Crabgrass","[1]; Rate 250 g/ha, Postemergence",8
same,"Plant response rating, Crabgrass","[1]; Rate 250 g/ha, Preemergence",10
same,"Plant response rating, Wild oats","[2]; Rate 62 g/ha, Postemergence",4
same,Wild oats plant response rating,"[2]; Rate 62 g/ha, Preemergence",4
same,"Plant response rating, Wild oats","[2]; Rate 125 g/ha, Postemergence",5
same,Wild oats plant response rating,"[2]; Rate 125 g/ha, Preemergence",5
same,"Plant response rating, Wild oats","[2]; Rate 250 g/ha, Postemergence",6
same,"Plant response rating, Wild oats","[2]; Rate 250 g/ha, Preemergence",8
same,"Plant response rating, Morningglory","[3]; Rate 62 g/ha, Postemergence",8
same,Morningglory plant response rating,"[3]; Rate 62 g/ha, Preemergence",1
same,"Plant response rating, Morningglory","[3]; Rate 125 g/ha, Postemergence",8
same,Morningglory plant response rating,"[3]; Rate 125 g/ha, Preemergence",1
same,"Plant response rating, Morningglory","[3]; Rate 250 g/ha, Postemergence",9
same,"Plant response rating, Morningglory","[3]; Rate 250 g/ha, Preemergence",6
same,"Plant response rating, Cocklebur","[4]; Rate 62 g/ha, Postemergence",7
same,Cocklebur plant response rating,"[4]; Rate 62 g/ha, Preemergence",0
same,"Plant response rating, Cocklebur","[4]; Rate 125 g/ha, Postemergence",8
same,Cocklebur plant response rating,"[4]; Rate 125 g/ha, Preemergence",0
same,"Plant response rating, Cocklebur","[4]; Rate 250 g/ha, Postemergence",8
same,"Plant response rating, Cocklebur","[4]; Rate 250 g/ha, Preemergence",0
same,"Plant response rating, Velvetleaf","[5]; Rate 62 g/ha, Postemergence",7
same,Velvetleaf plant response rating,"[5]; Rate 62 g/ha, Preemergence",4
same,"Plant response rating, Velvetleaf","[5]; Rate 125 g/ha, Postemergence",8
same,Velvetleaf plant response rating,"[5]; Rate 125 g/ha, Preemergence",8
same,"Plant response rating, Velvetleaf","[5]; Rate 250 g/ha, Postemergence",9
same,"Plant response rating, Velvetleaf","[5]; Rate 250 g/ha, Preemergence",10
same,"Plant response rating, Giant foxtail","[6]; Rate 62 g/ha, Postemergence",1
same,Giant foxtail plant response rating,"[6]; Rate 62 g/ha, Preemergence",5
same,"Plant response rating, Giant foxtail","[6]; Rate 125 g/ha, Postemergence",8
same,Giant foxtail plant response rating,"[6]; Rate 125 g/ha, Preemergence",8
same,"Plant response rating, Giant foxtail","[6]; Rate 250 g/ha, Postemergence",9
same,"Plant response rating, Giant foxtail","[6]; Rate 250 g/ha, Preemergence",9
same,"Plant response rating, Wheat","[7]; Rate 62 g/ha, Postemergence",4
same,Wheat plant response rating,"[7]; Rate 62 g/ha, Preemergence",0
same,"Plant response rating, Wheat","[7]; Rate 125 g/ha, Postemergence",4
same,Wheat plant response rating,"[7]; Rate 125 g/ha, Preemergence",0
same,"Plant response rating, Wheat","[7]; Rate 250 g/ha, Postemergence",5
same,"Plant response rating, Wheat","[7]; Rate 250 g/ha, Preemergence",2
same,"Plant response rating, B. signalgrass","[8]; Rate 62 g/ha, Postemergence",3
same,B. signalgrass plant response rating,"[8]; Rate 62 g/ha, Preemergence",2
same,"Plant response rating, B. signalgrass","[8]; Rate 125 g/ha, Postemergence",4
same,B. signalgrass plant response rating,"[8]; Rate 125 g/ha, Preemergence",3
same,"Plant response rating, B. signalgrass","[8]; Rate 250 g/ha, Postemergence",7
same,"Plant response rating, B. signalgrass","[8]; Rate 250 g/ha, Preemergence",8
same,"Plant response rating, Soybean","[9]; Rate 62 g/ha, Postemergence",6
same,Soybean plant response rating,"[9]; Rate 62 g/ha, Preemergence",0
same,"Plant response rating, Soybean","[9]; Rate 125 g/ha, Postemergence",6
same,Soybean plant response rating,"[9]; Rate 125 g/ha, Preemergence",0
same,"Plant response rating, Soybean","[9]; Rate 250 g/ha, Postemergence",6
same,"Plant response rating, Soybean","[9]; Rate 250 g/ha, Preemergence",0
same,"Plant response rating, Blackgrass","[10]; Rate 62 g/ha, Postemergence",3
same,Blackgrass plant response rating,"[10]; Rate 62 g/ha, Preemergence",1
same,"Plant response rating, Blackgrass","[10]; Rate 125 g/ha, Postemergence",4
same,Blackgrass plant response rating,"[10]; Rate 125 g/ha, Preemergence",3
same,"Plant response rating, Blackgrass","[10]; Rate 250 g/ha, Postemergence",6
same,"Plant response rating, Blackgrass","[10]; Rate 250 g/ha, Preemergence",5
same,"Plant response rating, Corn","[11]; Rate 62 g/ha, Postemergence",3
same,Corn plant response rating,"[11]; Rate 62 g/ha, Preemergence",0
same,"Plant response rating, Corn","[11]; Rate 125 g/ha, Postemergence",3
same,Corn plant response rating,"[11]; Rate 125 g/ha, Preemergence",0
same,"Plant response rating, Corn","[11]; Rate 250 g/ha, Postemergence",4
same,"Plant response rating, Corn","[11]; Rate 250 g/ha, Preemergence",1
same,"Plant response rating, Nutsedge","[12]; Rate 62 g/ha, Postemergence",2
same,Nutsedge plant response rating,"[12]; Rate 62 g/ha, Preemergence",0
same,"Plant response rating, Nutsedge","[12]; Rate 125 g/ha, Postemergence",2
same,Nutsedge plant response rating,"[12]; Rate 125 g/ha, Preemergence",0
same,"Plant response rating, Nutsedge","[12]; Rate 250 g/ha, Postemergence",3
same,"Plant response rating, Nutsedge","[12]; Rate 250 g/ha, Preemergence",0
same,"Plant response rating, Redroot pigweed","[13]; Rate 62 g/ha, Postemergence",8
same,Redroot pigweed plant response rating,"[13]; Rate 62 g/ha, Preemergence",7
same,"Plant response rating, Redroot pigweed","[13]; Rate 125 g/ha, Postemergence",9
same,Redroot pigweed plant response rating,"[13]; Rate 125 g/ha, Preemergence",8
same,"Plant response rating, Redroot pigweed","[13]; Rate 250 g/ha, Postemergence",10
same,"Plant response rating, Redroot pigweed","[13]; Rate 250 g/ha, Preemergence",9
same,"Plant response rating, Sugarbeets","[14]; Rate 62 g/ha, Postemergence",9
same,Sugarbeets plant response rating,"[14]; Rate 62 g/ha, Preemergence",7
same,"Plant response rating, Sugarbeets","[14]; Rate 125 g/ha, Postemergence",9
same,Sugarbeets plant response rating,"[14]; Rate 125 g/ha, Preemergence",8
same,"Plant response rating, Sugarbeets","[14]; Rate 250 g/ha, Postemergence",10
same,"Plant response rating, Sugarbeets","[14]; Rate 250 g/ha, Preemergence",10
